Drawing on patent publication US11325899B2, “Benzofurane and benzothiophene derivatives as PGE2 receptor modulators” (IDORSIA PHARMACEUTICALS LTD, priority 2017, dated 2022), this text covers IC50 for 23 molecules.

T1 sequence (P43116 whole entry): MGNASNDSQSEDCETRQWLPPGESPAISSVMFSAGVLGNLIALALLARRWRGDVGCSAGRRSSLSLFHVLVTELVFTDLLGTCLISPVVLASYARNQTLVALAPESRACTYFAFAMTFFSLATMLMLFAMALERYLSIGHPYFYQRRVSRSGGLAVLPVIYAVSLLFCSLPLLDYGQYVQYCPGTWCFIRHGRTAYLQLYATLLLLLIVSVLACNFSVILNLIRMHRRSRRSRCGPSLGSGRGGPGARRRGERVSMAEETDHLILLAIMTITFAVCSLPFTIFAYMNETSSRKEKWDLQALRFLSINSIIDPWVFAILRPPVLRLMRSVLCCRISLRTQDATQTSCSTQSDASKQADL

This test has as its target T1, EP2 receptor (Homo sapiens, UniProt P43116).
T1 construct: SF295 glioblastoma cells express high endogenous EP2 and no EP4; host or cells: SF295 glioblastoma cells
Briefly: hEP2 cAMP assay (SF295 glioblastoma cells, HTRF cAMP, PGE2 stimulation). It counts as cell-based. As to conditions: antagonistic activity. Put shortly: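 HTRF cAMP readout gave % cAMP relative to DMSO, fitted to IC50 with duplicate points. Compounds were preincubated 45 min at room temperature with EP2-expressing, EP4-negative SF295 cells in IBMX (2 mM)-containing buffer before a 30 min challenge with PGE2 at 75 nM final, its EC80.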
In the case of `CCOc1cc(-c2cc(NCCc3c(C)sc4c(C)cccc34)ncn2)ccc1C(C)C(=O)O` (racemic) [Example 126, rac-2-(4-{6-[2-(2,7-Dimethyl-benzo[b]thiophen-3-yl)-ethylamino]-pyrimidin-4-yl}-2-ethoxy-phenyl)-propionic acid], half-maximal inhibition (IC50) required 233 nM. That is a sub-micromolar value. `COc1ccc(Cl)c2c(CCNc3cc(-c4cc(C)c(C(=O)O)s4)ncn3)c(C)sc12` [Example 5, 5-{6-[2-(4-Chloro-7-methoxy-2-methyl-benzo[b]thiophen-3-yl)-ethylamino]-pyrimidin-4-yl}-3-methyl-thiophene-2-carboxylic acid] registered an IC50 of 177 nM. This IC50 and that of the molecule before are within 1.5-fold of each other. For `Cc1cc(-c2cc(NCCc3c(C)oc4ccccc34)ncn2)sc1C(=O)O` [Example 6, 3-Methyl-5-{6-[2-(2-methyl-benzofuran-3-yl)-ethylamino]-pyrimidin-4-yl}-thiophene-2-carboxylic acid] the value was 4 nM. In the case of `CCc1oc2c(C)cc(F)cc2c1CCNc1cc(-c2cc(C)c(C(=O)O)s2)ncn1` [Example 7, 5-{6-[2-(2-Ethyl-5-fluoro-7-methyl-benzofuran-3-yl)-ethylamino]-pyrimidin-4-yl}-3-methyl-thiophene-2-carboxylic acid], it took 198 nM to reach half-maximal inhibition (IC50). Consider `Cc1sc2c(C)cccc2c1CCNc1cc(-c2ccc(C(=O)O)cc2)ncn1` [Example 8, 4-{6-[2-(2,7-Dimethyl-benzo[b]thiophen-3-yl)-ethylamino]-pyrimidin-4-yl}-benzoic acid], for which the IC50 came to 8 nM. This IC50 lies about 25-fold lower than the previous one. Under `COc1ccc(Cl)c2c(CCNc3cc(-c4ccc(C(=O)O)c(O)c4)ncn3)c(C)sc12` [Example 9, 4-{6-[2-(4-Chloro-7-methoxy-2-methyl-benzo[b]thiophen-3-yl)-ethylamino]-pyrimidin-4-yl}-2-hydroxy-benzoic acid] stands 44 nM; under `Cc1sc2c(C)cc(F)cc2c1CCNc1cc(-c2ccc(C(=O)O)c(O)c2)ncn1` [Example 10, 4-{6-[2-(5-Fluoro-2,7-dimethyl-benzo[b]thiophen-3-yl)-ethylamino]-pyrimidin-4-yl}-2-hydroxy-benzoic acid], 32 nM. The molecule `CSc1cc(-c2cc(NCCc3c(C#N)sc4c(C)cc(F)cc34)ncn2)ccc1C(=O)O` [Example 12, 4-{6-[2-(2-Cyano-5-fluoro-7-methyl-benzo[b]thiophen-3-yl)-ethylamino]-pyrimidin-4-yl}-2-methylsulfanyl-benzoic acid] came in with an IC50 of 4 nM. The molecule `COc1cccc2c(CCNc3cc(-c4ccc(C(=O)O)c(SC)c4)ncn3)c(C#N)sc12` [Example 13, 4-{6-[2-(2-Cyano-7-methoxy-benzo[b]thiophen-3-yl)-ethylamino]-pyrimidin-4-yl}-2-methylsulfanyl-benzoic acid] gave an IC50 of 32 nM.

Turning to `CCOc1cc(-c2cc(NCCc3c(C)sc4c(C)cc(F)cc34)ncn2)sc1/C=C/C(=O)O` [Example 96, (E)-3-(3-Ethoxy-5-{6-[2-(5-fluoro-2,7-dimethyl-benzo[b]thiophen-3-yl)-ethylamino]-pyrimidin-4-yl}-thiophen-2-yl)-acrylic acid], the IC50 came out at 121 nM. For `CCOc1cc(-c2cc(NCCc3c(C)sc4c(C)cc(F)cc34)ncn2)sc1CCC(=O)O` [Example 97, 3-(3-Ethoxy-5-{6-[2-(5-fluoro-2,7-dimethyl-benzo[b]thiophen-3-yl)-ethylamino]-pyrimidin-4-yl}-thiophen-2-yl)-propionic acid] the value was 120 nM. For `COc1ccc(Cl)c2c(CCNc3cc(-c4ccc(C(=O)O)c(OC(C)C)c4)ncn3)c(C)sc12` [Example 98, 4-{6-[2-(4-Chloro-7-methoxy-2-methyl-benzo[b]thiophen-3-yl)-ethylamino]-pyrimidin-4-yl}-2-isopropoxy-benzoic acid] the value was 53 nM; for `CCCOc1cc(-c2cc(NCCc3c(C)sc4c(C)c(F)ccc34)ncn2)ccc1C(=O)O` [Example 99, 4-{6-[2-(6-Fluoro-2,7-dimethyl-benzo[b]thiophen-3-yl)-ethylamino]-pyrimidin-4-yl}-2-propoxy-benzoic acid], 30 nM. Take `CCCOc1cc(-c2cc(NCCc3c(C)sc4c(C)cc(F)cc34)ncn2)ccc1C(=O)O` [Example 100, 4-{6-[2-(5-Fluoro-2,7-dimethyl-benzo[b]thiophen-3-yl)-ethylamino]-pyrimidin-4-yl}-2-propoxy-benzoic acid]: the IC50 was 20 nM. With `CCCOc1cc(-c2cc(NCCc3c(C)sc4c(OC)ccc(Cl)c34)ncn2)ccc1C(=O)O` [Example 101, 4-{6-[2-(4-Chloro-7-methoxy-2-methyl-benzo[b]thiophen-3-yl)-ethylamino]-pyrimidin-4-yl}-2-propoxy-benzoic acid], the 50% inhibitory concentration (IC50) amounted to 85 nM. The molecule `CCCOc1cc(-c2cc(NCCc3c(C)sc4c(Cl)ccc(Cl)c34)ncn2)ccc1C(=O)O` [Example 102, 4-{6-[2-(4,7-Dichloro-2-methyl-benzo[b]thiophen-3-yl)-ethylamino]-pyrimidin-4-yl}-2-propoxy-benzoic acid] yielded an IC50 of 54 nM. As for `CCOc1cc(-c2cc(NCCc3c(C)sc4c(C)ccc(F)c34)ncn2)cc(C)c1C(=O)O` [Example 103, 2-Ethoxy-4-{6-[2-(4-fluoro-2,7-dimethyl-benzo[b]thiophen-3-yl)-ethylamino]-pyrimidin-4-yl}-6-methyl-benzoic acid], the midpoint of inhibition, the IC50, lay at 111 nM. This IC50 is about 2.1-fold higher than that of the molecule before. As for `CCOc1cc(-c2cc(NCCc3c(C#N)sc4c(C)cc(F)cc34)ncn2)ccc1CC(=O)O` [Example 104, (4-{6-[2-(2-Cyano-5-fluoro-7-methyl-benzo[b]thiophen-3-yl)-ethylamino]-pyrimidin-4-yl}-2-ethoxy-phenyl)-acetic acid], the IC50 amounted to 48 nM. For the molecule `CCOc1cc(-c2cc(NCCc3c(C)sc4c(OC)ccc(F)c34)ncn2)ccc1CC(=O)O` [Example 105, (2-Ethoxy-4-{6-[2-(4-fluoro-7-methoxy-2-methyl-benzo[b]thiophen-3-yl)-ethylamino]-pyrimidin-4-yl}-phenyl)-acetic acid], the IC50 stood at 157 nM.

Molecule `CCOc1cc(-c2cc(NCCc3c(C)sc4c(C)ccc(F)c34)ncn2)ccc1CC(=O)O` [Example 107, (2-Ethoxy-4-{6-[2-(4-fluoro-2,7-dimethyl-benzo[b]thiophen-3-yl)-ethylamino]-pyrimidin-4-yl}-phenyl)-acetic acid] showed an IC50 of 249 nM. In turn, `CCOc1cc(-c2cc(NCCc3c(C)sc4c(C)cccc34)ncn2)ccc1CC(=O)O` [Example 109, (4-{6-[2-(2,7-Dimethyl-benzo[b]thiophen-3-yl)-ethylamino]-pyrimidin-4-yl}-2-ethoxy-phenyl)-acetic acid] registered an IC50 of 95 nM. For `CCOc1cc(-c2cc(NCCc3c(C)sc4c(C)cc(F)cc34)ncn2)ccc1CC(=O)O` [Example 110, (2-Ethoxy-4-{6-[2-(5-fluoro-2,7-dimethyl-benzo[b]thiophen-3-yl)-ethylamino]-pyrimidin-4-yl}-phenyl)-acetic acid] the value was 160 nM; for `CCOc1cc(-c2cc(NCCc3c(C)sc4c(C)c(F)ccc34)ncn2)ccc1CC(=O)O` [Example 112, (2-Ethoxy-4-{6-[2-(6-fluoro-2,7-dimethyl-benzo[b]thiophen-3-yl)-ethylamino]-pyrimidin-4-yl}-phenyl)-acetic acid], 188 nM.
